Results: ChEMBL document CHEMBL5512618, “MYC the oncogene from hell: Novel opportunities for cancer therapy” (Eur J Med Chem, 2024)

Legend:
[1] = system: HL-60; assay: Inhibition of cell development in human HL-60 cells; assay type: functional, cell-based
[2] = biological target: c-Myc/Max (Homo sapiens, UniProt P01106+P61244); assay: Inhibition of His6-tagged Max (151 residues)(unknown origin) expressed in bacterial system/recombinant MYC ) (unknown origin) expressed in bacterial system by EMSA
[3] = Lipophilicity, logP of compound; assay type: physicochemical; conditions: octanol/water
[4] = system: Burkitts lymphoma cell; assay: Inhibition of cell growth in human Burkitts lymphoma cells; assay type: functional, cell-based
[5] = biological target: Myc proto-oncogene protein (Homo sapiens, UniProt P01106); assay: Binding affinity to CM5 sensor chip immobilized MYC bHLHZip domain (unknown origin) assessed as dissociation constant by SPR analysis

Compound: O=C(O)c1ccc(Nc2ccc([N+](=O)[O-])c3nonc23)cc1
- IC50 [1]: 30 µM

Compound: O=[N+]([O-])c1ccc(Nc2ccccc2-c2ccccc2)c2nonc12
- IC50 [1]: 7.2 µM

Compound: COC(=O)c1ccc(Nc2ccc([N+](=O)[O-])c3nonc23)c(-c2ccc(C)cc2)c1
- IC50 [2]: 34 µM

Compound: Cn1nc(C(F)(F)F)cc1-c1ccc(OCc2ccc(Cl)cc2)c(-c2ccc(Cl)c(C(F)(F)F)c2)c1O
- logP [3]: 8.4

Compound: COc1ccc2nc3cc(/N=N/c4ccc(N)nc4N)ccc3c(N)c2c1
- IC50 [4]: 0.5 µM
- Kd [5]: 1.6 µM
